From ChEMBL document CHEMBL4725266, “Decaturenol A and known oxalicine related meroterpenoids isolated from Penicillium decaturense RO050, and their new biological activities” (Bioorg Med Chem Lett, 2020) come the findings set out here.

A short description of data set [1]: Cytotoxicity against human MDM cells assessed as reduction in cell viability at 40 ug/ml incubated for 24 hrs by MTT assay. The class given is cell-based. As to conditions: dose 40 µg/ml.
Data set [2] is described as follows: Cytotoxicity against human MDM cells assessed as reduction in cell viability at 20 ug/ml incubated for 48 hrs by MTT assay. The class given is cell-based. The note with it: dose 20 µg/ml.
Data set [3] in a line: Cytotoxicity against human MDM cells assessed as reduction in cell viability at 20 ug/ml incubated for 24 hrs by MTT assay. As to conditions: dose 20 µg/ml. The format is cell-based.
The subject of another data set is BMDM. Nature of the data set: Inhibition of IL-10-induced CD163 expression in human MDM cells at 20 ug/ml incubated for 24 hrs by ELISA. The format is functional, cell-based. The note with it: dose 20.0 µg/ml.
Data set [4] concerns HT-22. As to the kind of experiment: Cytotoxicity against mouse HT-22 cells assessed as reduction in cell viability at 10 uM incubated for 24 hrs by MTT assay. The class given is cell-based. As to conditions: ht-22, 24 h.
Data set [5] deals with HT-22. Nature of the data set: Protection against TM mediated ER stress-induced cell death in mouse HT-22 cells assessed as increase in cell viability at 10 uM incubated for 24 hrs by MTT assay. The class given is functional, cell-based.
Data set [6] concerns HT-22. Nature of the data set: Cytotoxicity against mouse HT-22 cells assessed as reduction in cell viability at incubated for 24 hrs by MTT assay. As to conditions: HT-22, 24 h. The class given is cell-based.
In data set [7] the test system is HT-22. Nature of the data set: Cytotoxicity against mouse HT-22 cells assessed as reduction in cell viability at 10 uM incubated for 24 hrs in presence of tunicamycin by MTT assay. As to conditions: ht-22, 24 h. The format is cell-based.

pIC50: −log10 of the molar value. Active and inactive are the calls of the source. The calls are words filed in the database; no cut-off is given here.

Consider `CC1=CC[C@@H]2[C@@]3(C)CC[C@H](O)C(C)(C)[C@@H]3CC[C@@]2(C)[C@]12Cc1c(cc(-c3cccnc3)oc1=O)O2`, for which the figures for the Activity entry in data set [1], in data set [2] and in data set [3] were “Toxic”, “Toxic” and “Non-Toxic”, respectively. Moreover, the inhibition result in the data set with BMDM was “Active”.
`C/C(=C\CC/C(C)=C/Cc1c(O)cc(-c2cccnc2)oc1=O)CC/C=C(\C)CCC(O)C(C)(C)O` (centres undefined): the Activity result is given as “Toxic” in data set [1], “Toxic” in data set [2], “Non-Toxic” with HT-22 [4] and “Non-Toxic” in data set [3]. Also, in the data set with HT-22 [5], the result was Active. In addition, the inhibition entry with BMDM was “Active”.
On to `CC1=CC[C@@H]2[C@]34CC[C@](O)(OC3)C(C)(C)[C@@H]4CC[C@@]2(C)[C@@]12Oc1cc(-c3cccnc3)oc(=O)c1[C@@H]2O` [DECATURIN B], for which the Activity entry in data set [1] is given as “Toxic”; in data set [2] it was “Toxic”; in the data set with HT-22 [4], “Toxic”; in data set [3], “Non-Toxic”. Also, the result in the data set on HT-22 [5] was Active. In addition, in the data set on BMDM, the inhibition result was “Active”.
In the case of `CC1=CC[C@@H]2[C@@]3(C)CCC(=O)C(C)(C)[C@@H]3CC[C@@]2(C)[C@]12Cc1c(cc(-c3cccnc3)oc1=O)O2` [DECATURIN D], the Activity result in data set [1] is recorded as “Toxic”; in data set [2], “Toxic”; in the data set with HT-22 [4] it was “Toxic”; in data set [3], “Non-Toxic”. In the data set with HT-22 [5], the result was Active. In addition, in the data set with BMDM, the inhibition result is “Active”.
Consider `C=C(C)[C@@H]1CC[C@]2(C)[C@H](CC=C(C)[C@]23Oc2cc(-c4cccnc4)oc(=O)c2[C@@H]3O)[C@@]12CCC(=O)OC2` [OXALICINE A], for which the pIC50 in the data set on HT-22 [6] is 5.23. The Activity entry with HT-22 [7] was “Toxic”.
